Assay results taken from ChEMBL document CHEMBL1136078, “Fundamental structure-activity relationships associated with a new structural class of respiratory syncytial virus inhibitor” (Bioorg Med Chem Lett, 2003).

Key:
[1] = tested on: HEp-2; assay: Concentration that causes cytotoxicity to uninfected HEp-2 human lung carcinoma cell line; assay type: functional
[2] = tested on: Respiratory syncytial virus; assay: Antiviral activity against respiratory syncytial virus in HEp-2 human lung carcinoma cell line; […]; assay type: functional, organism-based
[3] = tested on: Respiratory syncytial virus; assay: Antiviral activity against respiratory syncytial virus in HEp-2 human lung carcinoma cell line; assay type: functional, organism-based

Row | SMILES | CC50 [1] [µM] | EC50 [2] | EC50 [3] [µM]
1 | COC(=O)Cn1c(Cn2nnc3ccccc32)nc2ccccc21 | 374 | Not Active | 
2 | O=C(O)CCn1c(Cn2nnc3ccccc32)nc2ccccc21 | 184 |  | 18.1
3 | O=C(O)Cn1c(Cn2nnc3ccccc32)nc2ccccc21 | 303 | Not Active | 
4 | CC(C)Cn1c(Cn2nc3ccccc3n2)nc2ccccc21 | 106 |  | 47.5
5 | CC(C)n1c(Cn2nc3ccccc3n2)nc2ccccc21 | 58 |  | 51.5
6 | N#CCCn1c(Cn2nnc3ccccc32)nc2ccccc21 | 49.3 |  | 2.69
7 | CC(C)CCn1c(Cn2nc3ccccc3n2)nc2ccccc21 | 13.5 |  | 0.44
8 | c1ccc2[nH]c(Cn3nnc4ccccc43)nc2c1 | 164 |  | 31.1
9 | CC(C)Cn1c(Cn2nnc3ccccc32)nc2ccccc21 | 15.5 | Not Active | 
10 | O=C(Cn1c(Cn2nnc3ccccc32)nc2ccccc21)c1ccccc1 | 18 |  | 2.2
11 | CC(C)CCCn1c(Cn2nnc3ccccc32)nc2ccccc21 | 24 |  | 0.19
12 | NC(=O)CCn1c(Cn2nnc3ccccc32)nc2ccccc21 | 4.28 |  | 2.1
13 | CN(C)CCCn1c(Cn2nnc3ccccc32)nc2ccccc21 | 197 |  | 1.1
14 | CCCCn1c(Cn2nnc3ccccc32)nc2ccccc21 | 12 |  | 0.066
15 | CC(O)CCn1c(Cn2nnc3ccccc32)nc2ccccc21 (stereo not given) | > 309 |  | 0.12
16 | CC(C)n1c(Cn2nnc3ccccc32)nc2ccccc21 | 129 |  | 15.5

Row | SMILES | CC50 [1] [µM] | EC50 [2] | EC50 [3] [µM]
17 | CSCCn1c(Cn2nnc3ccccc32)nc2ccccc21 | 166 |  | 0.3
18 | CC(C)(C)OC(=O)CCn1c(Cn2nnc3ccccc32)nc2ccccc21 | 9.98 |  | 4.31
19 | CS(=O)(=O)CCn1c(Cn2nnc3ccccc32)nc2ccccc21 | 337 |  | 0.25
20 | OC(Cn1c(Cn2nnc3ccccc32)nc2ccccc21)c1ccccc1 (stereo not given) | 37.6 |  | 0.59
21 | CC(C)CCn1c(Cn2nnc3ccccc32)nc2ccccc21 | 39.9 |  | 0.1
22 | CCN(CC)CCCn1c(Cn2nnc3ccccc32)nc2ccccc21 |  | Not Active | 
23 | C[S+]([O-])CCn1c(Cn2nnc3ccccc32)nc2ccccc21 (stereo not given) | 56.4 |  | 0.43
24 | OCCn1c(Cn2nnc3ccccc32)nc2ccccc21 | 205 |  | 7.7
25 | CC(C)=CCn1c(Cn2nnc3ccccc32)nc2ccccc21 | 102 |  | 3.3
26 | CCN(CC)OC(=O)Cn1c(Cn2nnc3ccccc32)nc2ccccc21 | 250 | Not Active | 
27 | c1ccc(Cn2c(Cn3nnc4ccccc43)nc3ccccc32)cc1 | 9 |  | 10.5
28 | CCN(CC)OC(=O)Cn1c(Cn2nc3ccccc3n2)nc2ccccc21 |  | Not Active | 
29 | CN(C)CCCn1c(Cn2nc3ccccc3n2)nc2ccccc21 | 182 |  | 3.6
30 | c1ccc(CCn2c(Cn3nnc4ccccc43)nc3ccccc32)cc1 | 2.6 |  | 0.77
31 | CC(=O)CCn1c(Cn2nnc3ccccc32)nc2ccccc21 | 59 |  | 0.52
